Our source for the GI50 and TGI values is PubChem BioAssay (NCI).

What all share (assay): NCI-60 cell line screen, 48 h
Assay [1] concerns LXFL 529 NSCLC.
Assay [2] has as its system KM20L2 colon.
Assay [3] has as its system HOP-18 NSCLC.
For assay [4], the system named is SNB-78 CNS.
Assay [5] has as its system DMS 114 small cell lung.
Assay [6] deals with T-47D breast.
The test system of assay [7] is MDA-MB-435.
Assay [8] deals with NCI/ADR-RES ovarian.
The test system of assay [9] is BT-549 breast.
Assay [10] deals with HS 578T breast.

Each structure is given as a SMILES string.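 Dose response: 5 concentrations. Exposure: 48 h. Format: 96-well plates. Endpoint: linear interpolation; highest concentration if not reached. Abbreviation: GI50, concentration required for 50% inhibition of growth. TGI is the concentration that stops growth completely.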

Turning to `CC(=O)[CH-]C(=O)c1ccccc1.CC(=O)[CH-]C(=O)c1ccccc1.CC(C)CCCC(C)[C@H]1CCC2[C@@H]3CCC4C[C@@H]([O-])CC[C@]4(C)C3CC[C@@]21C.CC(C)CCCC(C)[C@H]1CCC2[C@@H]3CCC4C[C@@H]([O-])CC[C@]4(C)C3CC[C@@]21C.Cl.[Ti+4]` (stereo partly drawn), the GI50 in [1], in [2] and in assay [3] was > 25 µM each time. Further, the TGI in assay [1], in [2] and in assay [3] was > 25 µM in each case.
On to `C=CC1(C)/C(=N\O)C(C)(CC)C(=O)N1O` (stereo not drawn), for which the TGI in [1], in assay [3], in [4] and in assay [5] was > 100 µM each time.
Consider `COc1cccc(C(=O)O)c1Cc1cccc2ccccc12`, for which the TGI in [1], in [2] and in [3] was > 100 µM throughout.
For `CC(C)[C@H](COC(C)(C)C)N=CN1CSc2ccccc21`, the TGI was > 100 µM in assay [1], > 100 µM in assay [2], 81.5 µM in assay [4] and 62.1 µM in [5].
With `CC(=O)[CH-]C(=O)c1ccccc1.CC(=O)[CH-]C(=O)c1ccccc1.[O-]c1ccc(O)cc1.[O-]c1ccc(O)cc1.[Ti+4]`, the GI50 in assay [1] is 13 µM; in assay [2], 24.5 µM; in [3] it was 27.1 µM. Moreover, the TGI is 25.7 µM in assay [1], 66.9 µM in assay [2] and 72.2 µM in [3].
Turning to `CC(=O)N1C(=O)C(=O)c2cc(Cl)ccc21`, the TGI in [1], in assay [3], in [4] and in assay [5] was > 100 µM in each case.
For `O=C(CN1C(=O)c2ccccc2C1=O)OC1C=CCCC1` (stereo not drawn), the TGI in assay [1], in assay [2], in assay [3] and in assay [4] was > 100 µM in each case.
For `CC(C)(C)c1cc2c(OP(c3ccccc3)c3ccccc3)c(c1)Cc1cc(C(C)(C)C)cc(c1OP(c1ccccc1)c1ccccc1)Cc1cc(C(C)(C)C)cc(c1OP(c1ccccc1)c1ccccc1)Cc1cc(C(C)(C)C)cc(c1OP(c1ccccc1)c1ccccc1)C2`, the GI50 in assay [1], in assay [2] and in assay [5] was > 50 µM in each case. Also, the TGI in assay [1] was > 50 µM; in [2], > 50 µM; in [3] it was > 5 µM; in [4], > 5 µM; in [5], > 50 µM.
`COc1ccc2c3c([nH]c2c1[N+](=O)[O-])C(C)N(C(=O)/C=C/c1ccccc1)CC3` (stereo not drawn): the TGI in assay [1], in assay [2] and in [4] was > 100 µM in each case.
For the compound `O=C1c2ccccc2C(=O)N1C/C=N/NS(=O)(=O)c1ccc(Cl)cc1`, the TGI in assay [1], in [2] and in [5] was > 100 µM throughout.
For the compound `NC(CCc1nc(-c2ccccc2)cs1)C(=O)O` (stereo not drawn), the TGI in assay [1], in [3], in assay [4] and in [5] was > 100 µM in each case.
For the compound `CCC1N2CCCCC2[C@@H]2c3[nH]c4ccccc4c3CCN12` (stereo partly drawn), the TGI in assay [1], in assay [2], in assay [3], in assay [4] and in assay [5] was > 100 µM in each case.
As to `COC(=O)/C1=C/C2CC(/C=C(/c3ccccc3)C(=O)O1)C2`, the results for the TGI in [3] and in assay [5] were > 100 µM and 55.8 µM, respectively.
Consider `N#CC(C(=N/NC(N)=S)/C(=N\NC(N)=S)C(C#N)c1ccccc1)c1ccccc1` (stereo not drawn), for which the TGI in [1], in [2], in [3], in [4] and in [5] was > 10 µM throughout.
In the case of `CCC1(c2ccncc2)CCC(=O)NC1=O` (stereo not drawn), the TGI in [1], in [2], in [4] and in assay [5] was > 100 µM throughout.
As for `CC(=O)OC1CC(C)c2c1ncnc2N1CCN(C(=O)OC(C)(C)C)CC1` (stereo not drawn), the GI50 is 54 µM in assay [6]; 19.8 µM in [7]; 67.6 µM in assay [8]; 61 µM in assay [9]; 83.5 µM in assay [10]. The TGI was > 100 µM in assay [6]; 41 µM in [7]; > 100 µM in assay [8]; > 100 µM in [9]; > 100 µM in assay [10].
For the compound `CCC(=O)[O-].CCC(=O)[O-].N.N.N.N.[Co+3].[O-][Cl+3]([O-])([O-])[O-]`, the GI50 in assay [1], in assay [2] and in [4] was > 100 µM each time. Further, the TGI in assay [1], in assay [2] and in [4] was > 100 µM in each case.
As for `C#Cc1cccc(N2C(=O)CC(=P(c3ccccc3)(c3ccccc3)c3ccccc3)C2=O)c1`, the TGI in assay [1] is > 100 µM; in assay [4], > 100 µM; in [5], 72.6 µM.
As to `C=C(C)[C@@H]1CC[C@]2(c3ncc(C)o3)CC[C@]3(C)[C@H](CC[C@@H]4[C@@](C)(CCC#N)[C@H](C(=C)C)CC[C@]43C)[C@@H]12`, the GI50 in assay [6] is 3.19 µM; in assay [7], 4.87 µM; in assay [8], 3.33 µM; in assay [9], 14.4 µM; in [10], 4.3 µM. Moreover, the TGI was found to be 15 µM in assay [6]; 18 µM in assay [7]; 11.9 µM in [8]; 29.2 µM in assay [9]; 19.4 µM in assay [10].
As to `COc1ccc(-n2nc(C)c3c(Nc4ccc(NC(=O)Nc5cc(C(F)(F)F)ccc5F)cc4)ncnc32)cc1`, the GI50 in assay [6] is 2.57 µM; in assay [7], 2.44 µM; in assay [8], 2.93 µM; in assay [9] it was 2.49 µM; in assay [10], 2.33 µM. In addition, the TGI is 8.72 µM in [6]; 6.51 µM in [7]; 11.9 µM in assay [8]; 7.67 µM in assay [9]; 7.11 µM in [10].
Regarding `CC[O+]=c1cccc2ssnc1-2`, the TGI in assay [1], in assay [2], in assay [3] and in assay [4] was > 100 µM in each case.
